# Earlier results in publication PMC4139154 (Biochemistry, 2014).
# Columns and labels:
# iNOS = conditions: read-out: Kd of imidazole for iNOS
# eNOS = conditions: read-out: Kd of imidazole for eNOS
# nNOS = conditions: read-out: Kd of imidazole for nNOS
smiles,measurement,setting,value
c1c[nH]cn1 [imidazole],Kd,iNOS,42 µM
same,Kd,eNOS,150 µM
same,Kd,nNOS,160 µM
